Usually ED50 stands for the dose that gives a 50% effect, or the effect in half of the subjects. For orientation: IC50 means the midpoint of a concentration-inhibition curve.

Series [1] has as its system stomach. In words: Gastric Cytoprotection (0.2N NaOH-induced stomach lesion, ulcer index). It is filed as in vivo. Conditions: test compound 30 minutes before oral 0.2N NaOH; killed one hour later; read-out: ED50 (dose which reduces an ulcer index by 50% of that in a control animal). As to the method:
Gastric cytoprotection was measured according to the method of A. Robert, et al. (Gastroenterlogy 77 (3), 443 (1979).
Thirty minutes later after the test compound was administered, the animals were given orally 0.2N NaOH and killed one hour later by chloroform anesthesia.
The stomach was taken out, fixed with 5% formalin solution, and opened along greater curvature.
The length of the lesion brought about in the stomach is measured and expressed in terms of the ulcer index. Gastric cytoprotection activity is expressed in Table 1 below as an ED50 value (dose in μg/Kg which reduces an ulcer index by 50% of that in a control animal (ulcer index: 100%)).

Series [2] relates to gastric acid secretion. In words: Gastric Acid Secretion Inhibition (pentagastrin-stimulated, perfused stomach). It is filed as in vivo, rat (male SD rats). Conditions: intravenous; pentagastrin 0.05 μg/Kg/min; relative to PGE2 set as 1. As to the method:
Male SD rats were operated by means of ventrotomy under urethane anesthesia. A double cannula was inserted into the fundus of the rat. The stomach lumen was continuously perfused with a physiological saline solution. The perfusate was drawn into the pH meter to continuously measure its pH (M. Ghosh, H. Schild, Br. J. Pharmacol. 13, 54 (1958)).
Pentagastrin was infused continuously at a rate of 0.05 μg/Kg/min. to stimulate gastric acid secretion.
The test compounds were injected intravenuously into the femoral vein when the pH reached a steady state at about 4.0.
Gastric acid secretion inhibition activity is calculated from the area made by pH augmentation against time.
The potency of the compounds is compared and expressed in terms of PGE2 ratio where PGE2 is set as 1.

For series [3], the system named is platelet aggregation. In words: Inhibiting Effect of Platelet Aggregation (ADP-induced, human platelet rich plasma). It is filed as cell-based. Conditions: human PRP, ADP 10 μM, test compound added one minute prior to ADP, read-out: ED50 (text: IC50), inhibition of platelet aggregation. The procedure: Blood collected from human intermediate cubital vein was centrifuged at 800 rpm for 10 minutes. The supernatant was taken out as platelet rich plasma (PRP). Aliquots of PRP were dispensed into test tubes to which […] (ADP) was added (final concentration: 10 μM) to induce platelet aggregation. The extent of platelet aggregation is determined by an aggregometer (Rika Denki, Tokyo) as a change of turbidity. The test compound is added in one minute prior to the addition pf ADP. IC50 values are calculated as a concentration of test compound which inhibits platelet aggregation by 50%.

For series [4] the following is noted: neutral aqueous solution; cited from earlier work.
The conditions of series [5]: cited from earlier work.

In brackets after ≈: the same amount, converted by molar mass.

For the molecule `CCCCC[C@H](O)/C=C/[C@@H]1[C@H]2c3cccc(/C=C/C(=O)O)c3O[C@H]2C[C@H]1O` [Compound 24, d-(3E)-2,5,6,7-tetranor-3,4-didehydro-4,8-inter-m-phenylene PGI2], the ED50 in series [1] was 21.4 µg/kg. Besides, the “Gastric Antisecretory Activity, Relative Potency Ratio [PGE2 = 1.0]” value in series [2] is given as 23. Besides, in series [3], the IC50 was 0.4 ng/mL (≈ 1.07 nM).

As for `CCCCC(C)[C@H](O)/C=C/[C@@H]1[C@H]2c3cccc(/C=C/C(=O)O)c3O[C@H]2C[C@H]1O` (stereo partly drawn) [Compound 28, d-(3E)-16-methyl-2,5,6,7-tetranor-3,4-didehydro-4,8-inter-m-phenylene PGI2], the ED50 in series [1] was 0.26 µg/kg. In addition, the “Gastric Antisecretory Activity, Relative Potency Ratio [PGE2 = 1.0]” value in series [2] came out at 55. The IC50 in series [3] is 1.6 ng/mL (≈ 4.14 nM).

In the case of `CCCC[C@H](C)C[C@H](O)/C=C/[C@@H]1[C@H]2c3cccc(/C=C/C(=O)O)c3O[C@H]2C[C@H]1O` [Compound 31, d-(3E, 17S)-17-methyl-20a-homo-2,5,6,7-tetranor-3,4-didehydro-4,8-inter-m-phenylene PGI2], the IC50 in series [3] worked out at 0.14 ng/mL (≈ 0.35 nM).

Regarding `CCCCC(C)(C)[C@H](O)/C=C/[C@@H]1[C@H]2c3cccc(/C=C/C(=O)O)c3O[C@H]2C[C@H]1O` [Compound 34, d-(3E)-16,16-dimethyl-2,5,6,7-tetranor-3,4-didehydro-4,8-inter-m-phenylene PGI2], in series [1], the ED50 was determined as 1.6 µg/kg. Further, the “Gastric Antisecretory Activity, Relative Potency Ratio [PGE2 = 1.0]” value in series [2] was found to be 36. Also, the IC50 in series [3] was found to be 45 ng/mL (≈ 112 nM).

For `O=C(O)/C=C/c1cccc2c1O[C@H]1C[C@@H](O)[C@H](/C=C/[C@@H](O)c3ccccc3)[C@@H]21` [Compound 37, d-(3E)-15-phenyl-2,5,6,7,16,17,18,19,20-nonanor-3,4-didehydro-4,8-inter-m-phenylene PGI2], the ED50 in series [1] stood at 0.83 µg/kg. Also, the “Gastric Antisecretory Activity, Relative Potency Ratio [PGE2 = 1.0]” value in series [2] was found to be 83. Further, the IC50 in series [3] came out at 0.56 ng/mL (≈ 1.48 nM).

Consider `O=C(O)/C=C/c1cccc2c1O[C@H]1C[C@@H](O)[C@H](/C=C/[C@@H](O)c3ccc(Cl)cc3)[C@@H]21` [Compound 40, d-(3E)-15-(p-chlorophenyl)-2,5,6,7,16,17,18,19,20-nonanor-3,4-didehydro-4,8-inter-m-phenylene PGI2], for which, in series [1], the ED50 was found to be 0.46 µg/kg.

On to `O=C(O)/C=C/c1cccc2c1O[C@H]1C[C@@H](O)[C@H](/C=C/[C@@H](O)c3cccc(F)c3)[C@@H]21` [Compound 43, d-(3E)-15-(m-fluorophenyl)-2,5,6,7,16,17,18,19,20-nonanor-3,4-didehydro-4,8-inter-m-phenylene PGI2], for which the ED50 in series [1] was 0.39 µg/kg.

Take `CC(C)(c1ccccc1)[C@H](O)/C=C/[C@@H]1[C@H]2c3cccc(/C=C/C(=O)O)c3O[C@H]2C[C@H]1O` [Compound 51, d-(3E)-16-methyl-16-phenyl-2,5,6,7,18,19,20-heptanor-3,4-didehydro-4,8-inter-m-phenylene PGI2]: the IC50 in series [3] was found to be 1800 ng/mL (≈ 4280 nM).

Regarding `O=C(O)/C=C/c1cccc2c1O[C@H]1C[C@@H](O)[C@H](/C=C/[C@@H](O)C3CCCC3)[C@@H]21` [Compound 57, d-(3E)-15-cyclopentyl-2,5,6,7,16,17,18,19,20-nonanor-3,4-didehydro-4,8-inter-m-phenylene PGI2], the ED50 in series [1] was 5.07 µg/kg.

In the case of `O=C(O)/C=C/c1cccc2c1O[C@H]1C[C@@H](O)[C@H](/C=C/[C@@H](O)C3CCCCC3)[C@@H]21` [Compound 60, d-(3E)-15-cyclohexyl-2,5,6,7,16,17,18,19,20-nonanor-3,4-didehydro-4,8-inter-m-phenylene PGI2], in series [1], the ED50 is 0.88 µg/kg. For the same molecule, the “Gastric Antisecretory Activity, Relative Potency Ratio [PGE2 = 1.0]” value in series [2] amounted to 14. Further, the IC50 in series [3] came out at 0.35 ng/mL (≈ 0.91 nM).

Regarding `CCCOC[C@H](O)/C=C/[C@@H]1[C@H]2c3cccc(/C=C/C(=O)O)c3O[C@H]2C[C@H]1O` [Compound 69, d-(3E)-2,5,6,7-tetranor-17-oxa-3,4-didehydro-4,8-inter-m-phenylene PGI2], in series [1], the 50% effective dose (ED50) turned out to be 6.5 µg/kg. Also, in series [2], the “Gastric Antisecretory Activity, Relative Potency Ratio [PGE2 = 1.0]” value turned out to be 10. Also, the IC50 in series [3] worked out at 0.58 ng/mL (≈ 1.55 nM).

`CCOCC(C)(C)[C@H](O)/C=C/[C@@H]1[C@H]2c3cccc(/C=C/C(=O)O)c3O[C@H]2C[C@H]1O` [Compound 72, d-(3E)-16,16-dimethyl-2,5,6,7-tetranor-18-oxa-3,4-didehydro-4,8-inter-m-phenylene PGI2]: in series [1], the ED50 worked out at 2.7 µg/kg. Also, in series [2], the “Gastric Antisecretory Activity, Relative Potency Ratio [PGE2 = 1.0]” value was 9. In addition, in series [3], the IC50 was found to be 100 ng/mL (≈ 248 nM).

Regarding `O=C(O)/C=C/c1cccc2c1O[C@H]1C[C@@H](O)[C@H](/C=C/[C@@H](O)COc3ccccc3)[C@@H]21` [Compound 75, d-(3E)-16-phenoxy-2,5,6,7,17,18,19,20-octanor-3,4-didehydro-4,8-inter-m-phenylene PGI2], the ED50 in series [1] was 0.89 µg/kg. The “Gastric Antisecretory Activity, Relative Potency Ratio [PGE2 = 1.0]” value in series [2] came out at 73. Besides, the IC50 in series [3] was determined as 29 ng/mL (≈ 71 nM).

`C[C@@H](Oc1ccccc1)[C@H](O)/C=C/[C@@H]1[C@H]2c3cccc(/C=C/C(=O)O)c3O[C@H]2C[C@H]1O` [Compound 77, d-(3E,16R)-16-phenoxy-2,5,6,7,18,19,20-heptanor-3,4-didehydro-4,8-inter-m-phenylene PGI2]: the ED50 in series [1] was found to be 0.4 µg/kg. Besides, the “Gastric Antisecretory Activity, Relative Potency Ratio [PGE2 = 1.0]” value in series [2] came to 83. For the same molecule, the IC50 in series [3] amounted to 14 ng/mL (≈ 33.1 nM).

`CC(C)(Oc1ccccc1)[C@H](O)/C=C/[C@@H]1[C@H]2c3cccc(/C=C/C(=O)O)c3O[C@H]2C[C@H]1O` [Compound 79, d-(3E)-16-methyl-16-phenoxy-2,5,6,7,18,19,20-heptanor-3,4-didehydro-4,8-inter-m-phenylene PGI2]: the median effective dose (ED50) in series [1] stood at 0.5 µg/kg. Also, the “Gastric Antisecretory Activity, Relative Potency Ratio [PGE2 = 1.0]” value in series [2] came to 112.

With `CCCCC[C@H](O)/C=C/[C@@H]1[C@H]2C/C(=C/CCCC(=O)O)O[C@H]2C[C@H]1O` [PGI2, Prostaglandin I2], the stability entry in series [4] was “extremely unstable even in neutral aqueous solution”. Further, in series [5], the “duration of physiological activities in vivo” value is “only short duration of physiological activities in vivo” and the metabolism in vivo entry is reported as “metabolized quickly in vivo”.

The record behind these values is patent publication US5086071A, “2,5,6,7-tetranor-4,8-inter-m-phenylene PGI2 derivatives” (Toray Industries, Inc., priority 1989, dated 1992).
